# How the values were obtained:
# [1] = tested on: NCI-H1975; assay: Antiproliferative activity against human NCI-H1975 cells harboring EGFR L858R/T790M mutant after 72 hrs by MTT assay; format: functional, cell-based; conditions: NCI-H1975, 72 h
# [2] = species: Homo sapiens; assay: Selectivity ratio of IC50 for recombinant human full length N-terminal His6-tagged LYN to IC50 for human full length N-terminal His6-tagged BMX
# [3] = species: Homo sapiens; assay: Selectivity ratio of IC50 for recombinant human N-terminal GST-tagged RET (658 to end residues) to IC50 for human full length N-terminal His6-tagged BMX
# [4] = species: Homo sapiens; assay: Selectivity ratio of IC50 for RSK1 (unknown origin) to IC50 for human full length N-terminal His6-tagged BMX
# [5] = molecular target: Cytoplasmic tyrosine-protein kinase BMX (Homo sapiens, UniProt P51813); assay: Inhibition of recombinant human full length N-terminal His6-tagged BMX expressed in Sf21 cells preincubated for 5 mins followed by biotinyl-beta Abeta Abeta AEEEPQYEEIPIYLELLP substrate addition after 30 to 60 mins in presence of ATP by fluorescence assay
# Cytoplasmic tyrosine-protein kinase BMX, sequence (P51813 whole entry): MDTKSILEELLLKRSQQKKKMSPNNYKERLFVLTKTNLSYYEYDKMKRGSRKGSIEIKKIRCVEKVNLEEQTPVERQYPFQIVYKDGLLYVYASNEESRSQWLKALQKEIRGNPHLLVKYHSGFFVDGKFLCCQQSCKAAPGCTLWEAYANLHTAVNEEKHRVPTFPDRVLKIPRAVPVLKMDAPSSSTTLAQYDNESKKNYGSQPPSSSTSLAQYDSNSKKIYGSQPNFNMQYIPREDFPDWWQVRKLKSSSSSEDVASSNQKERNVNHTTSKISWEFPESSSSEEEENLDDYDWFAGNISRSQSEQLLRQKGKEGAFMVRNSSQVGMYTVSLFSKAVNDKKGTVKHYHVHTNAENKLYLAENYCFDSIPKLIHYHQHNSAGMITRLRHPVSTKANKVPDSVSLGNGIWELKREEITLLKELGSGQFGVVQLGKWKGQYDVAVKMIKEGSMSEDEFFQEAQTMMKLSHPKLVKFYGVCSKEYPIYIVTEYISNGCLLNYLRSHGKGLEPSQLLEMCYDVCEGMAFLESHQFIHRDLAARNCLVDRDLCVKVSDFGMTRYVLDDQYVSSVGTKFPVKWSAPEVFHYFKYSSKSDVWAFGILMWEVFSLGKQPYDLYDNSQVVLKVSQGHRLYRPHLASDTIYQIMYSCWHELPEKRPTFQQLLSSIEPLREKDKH
# [6] = molecular target: Proto-oncogene tyrosine-protein kinase receptor Ret (Homo sapiens, UniProt P07949); assay: Inhibition of recombinant human N-terminal GST-tagged RET (658 to end residues) expressed in baculovirus Sf21 insect cells preincubated for 5 mins followed by biotinyl-beta Abeta Abeta AAEEEEYFELVAKKK substrate addition after 30 to 60 mins in presence of ATP by fluorescence assay
# Proto-oncogene tyrosine-protein kinase receptor Ret, sequence (P07949 whole entry, the tested form may be a part): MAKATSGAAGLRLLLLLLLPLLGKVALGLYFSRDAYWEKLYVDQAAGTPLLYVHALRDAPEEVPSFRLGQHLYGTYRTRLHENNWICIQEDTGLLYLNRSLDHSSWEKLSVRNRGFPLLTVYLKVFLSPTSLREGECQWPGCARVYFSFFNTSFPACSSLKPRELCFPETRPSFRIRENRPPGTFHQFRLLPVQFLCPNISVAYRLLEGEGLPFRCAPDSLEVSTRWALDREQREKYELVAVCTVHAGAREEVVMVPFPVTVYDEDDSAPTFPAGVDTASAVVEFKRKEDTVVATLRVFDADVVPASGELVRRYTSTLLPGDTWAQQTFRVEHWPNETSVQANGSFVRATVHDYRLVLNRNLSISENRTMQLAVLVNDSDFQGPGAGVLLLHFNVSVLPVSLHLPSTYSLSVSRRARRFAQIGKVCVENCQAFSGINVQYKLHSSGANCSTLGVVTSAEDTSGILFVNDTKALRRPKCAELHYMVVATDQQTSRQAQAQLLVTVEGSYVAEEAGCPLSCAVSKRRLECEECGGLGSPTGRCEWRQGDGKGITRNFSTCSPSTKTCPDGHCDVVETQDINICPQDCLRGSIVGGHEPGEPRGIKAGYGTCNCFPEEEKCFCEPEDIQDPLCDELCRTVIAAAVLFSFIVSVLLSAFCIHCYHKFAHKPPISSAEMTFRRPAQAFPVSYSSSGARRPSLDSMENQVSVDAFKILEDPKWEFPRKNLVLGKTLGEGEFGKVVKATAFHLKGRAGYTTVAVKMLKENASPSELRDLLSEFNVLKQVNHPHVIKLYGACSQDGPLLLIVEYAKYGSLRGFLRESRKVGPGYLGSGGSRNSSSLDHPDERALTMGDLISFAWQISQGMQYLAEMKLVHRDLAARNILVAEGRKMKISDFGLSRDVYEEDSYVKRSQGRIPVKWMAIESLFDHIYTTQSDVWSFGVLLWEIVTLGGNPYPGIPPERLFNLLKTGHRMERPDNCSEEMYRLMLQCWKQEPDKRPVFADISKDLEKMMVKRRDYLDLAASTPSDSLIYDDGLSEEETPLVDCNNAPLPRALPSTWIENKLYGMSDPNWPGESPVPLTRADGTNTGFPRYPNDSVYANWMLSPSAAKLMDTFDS
# [7] = molecular target: Tyrosine-protein kinase ITK/TSK (Homo sapiens, UniProt Q08881); assay: Inhibition of recombinant human N-terminal His6-tagged ITK (352 to 617 residues) expressed in baculovirus Sf21 insect cells preincubated for 5 mins followed by Ulight-TK peptide substrate addition after 30 to 60 mins in presence of ATP by fluorescence assay
# Tyrosine-protein kinase ITK/TSK, sequence (Q08881 whole entry, the tested form may be a part): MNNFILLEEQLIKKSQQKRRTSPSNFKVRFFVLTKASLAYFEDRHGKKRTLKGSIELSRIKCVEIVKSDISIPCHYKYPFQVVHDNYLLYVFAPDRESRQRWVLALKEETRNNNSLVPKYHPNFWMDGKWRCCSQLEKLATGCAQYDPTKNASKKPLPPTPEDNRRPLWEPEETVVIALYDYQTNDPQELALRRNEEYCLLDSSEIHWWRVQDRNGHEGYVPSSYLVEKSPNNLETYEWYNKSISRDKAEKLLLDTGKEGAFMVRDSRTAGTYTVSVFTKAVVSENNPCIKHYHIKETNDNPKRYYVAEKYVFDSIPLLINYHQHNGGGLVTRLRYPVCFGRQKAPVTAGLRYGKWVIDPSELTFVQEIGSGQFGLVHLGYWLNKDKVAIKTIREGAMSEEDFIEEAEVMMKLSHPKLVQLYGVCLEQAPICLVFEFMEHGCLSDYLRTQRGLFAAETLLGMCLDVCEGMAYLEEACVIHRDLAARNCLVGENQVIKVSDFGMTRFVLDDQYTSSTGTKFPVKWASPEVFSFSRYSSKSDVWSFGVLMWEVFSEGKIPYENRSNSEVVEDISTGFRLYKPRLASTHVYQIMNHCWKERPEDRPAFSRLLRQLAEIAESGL
# [8] = species: Homo sapiens; assay: Selectivity ratio of IC50 for recombinant human N-terminal His6-tagged HCK (230 to 497 residues) to IC50 for human full length N-terminal His6-tagged BMX
# [9] = molecular target: Tyrosine-protein kinase Fer (Homo sapiens, UniProt P16591); assay: Inhibition of recombinant human N-terminal His6-tagged FER (541 to end residues) expressed in baculovirus Sf21 insect cells preincubated for 5 mins followed by substrate addition after 30 to 60 mins in presence of ATP by fluorescence assay
# Tyrosine-protein kinase Fer, sequence (P16591 whole entry): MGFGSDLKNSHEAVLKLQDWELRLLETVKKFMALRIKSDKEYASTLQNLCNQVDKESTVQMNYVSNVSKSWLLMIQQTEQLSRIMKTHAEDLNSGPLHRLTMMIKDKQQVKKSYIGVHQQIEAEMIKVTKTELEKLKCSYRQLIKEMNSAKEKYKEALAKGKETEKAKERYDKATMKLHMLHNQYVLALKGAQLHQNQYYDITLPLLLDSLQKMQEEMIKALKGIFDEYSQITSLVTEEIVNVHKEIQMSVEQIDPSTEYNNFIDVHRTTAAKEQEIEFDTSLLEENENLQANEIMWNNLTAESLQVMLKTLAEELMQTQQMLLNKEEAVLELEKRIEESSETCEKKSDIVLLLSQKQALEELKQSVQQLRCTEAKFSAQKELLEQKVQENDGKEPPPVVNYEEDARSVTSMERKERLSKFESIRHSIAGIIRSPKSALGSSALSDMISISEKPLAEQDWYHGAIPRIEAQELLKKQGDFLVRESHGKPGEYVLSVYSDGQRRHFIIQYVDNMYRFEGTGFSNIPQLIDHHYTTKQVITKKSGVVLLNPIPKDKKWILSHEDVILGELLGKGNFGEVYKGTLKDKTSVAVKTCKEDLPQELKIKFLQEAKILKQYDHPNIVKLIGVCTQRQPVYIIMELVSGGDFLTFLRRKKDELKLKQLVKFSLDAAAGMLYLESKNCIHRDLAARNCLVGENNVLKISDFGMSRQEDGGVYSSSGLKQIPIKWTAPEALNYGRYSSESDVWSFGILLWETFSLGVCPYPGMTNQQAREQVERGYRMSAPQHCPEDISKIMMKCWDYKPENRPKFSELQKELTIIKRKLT
# [10] = species: Homo sapiens; assay: Selectivity ratio of IC50 for recombinant human N-terminal His6-tagged EGFR (696 to end residues) to IC50 for human full length N-terminal His6-tagged BMX
# [11] = species: Homo sapiens; assay: Selectivity ratio of IC50 for human N-terminal 6His-tagged HER4 (706 to 991 residues) to IC50 for human full length N-terminal His6-tagged BMX
# [12] = molecular target: Tyrosine-protein kinase JAK3 (Homo sapiens, UniProt P52333); assay: Inhibition of recombinant human N-terminal His6-tagged JAK3 (781 to end residues) expressed in baculovirus Sf21 insect cells preincubated for 5 mins followed by substrate addition after 30 to 60 mins in presence of ATP by fluorescence assay
# Tyrosine-protein kinase JAK3, sequence (P52333 whole entry): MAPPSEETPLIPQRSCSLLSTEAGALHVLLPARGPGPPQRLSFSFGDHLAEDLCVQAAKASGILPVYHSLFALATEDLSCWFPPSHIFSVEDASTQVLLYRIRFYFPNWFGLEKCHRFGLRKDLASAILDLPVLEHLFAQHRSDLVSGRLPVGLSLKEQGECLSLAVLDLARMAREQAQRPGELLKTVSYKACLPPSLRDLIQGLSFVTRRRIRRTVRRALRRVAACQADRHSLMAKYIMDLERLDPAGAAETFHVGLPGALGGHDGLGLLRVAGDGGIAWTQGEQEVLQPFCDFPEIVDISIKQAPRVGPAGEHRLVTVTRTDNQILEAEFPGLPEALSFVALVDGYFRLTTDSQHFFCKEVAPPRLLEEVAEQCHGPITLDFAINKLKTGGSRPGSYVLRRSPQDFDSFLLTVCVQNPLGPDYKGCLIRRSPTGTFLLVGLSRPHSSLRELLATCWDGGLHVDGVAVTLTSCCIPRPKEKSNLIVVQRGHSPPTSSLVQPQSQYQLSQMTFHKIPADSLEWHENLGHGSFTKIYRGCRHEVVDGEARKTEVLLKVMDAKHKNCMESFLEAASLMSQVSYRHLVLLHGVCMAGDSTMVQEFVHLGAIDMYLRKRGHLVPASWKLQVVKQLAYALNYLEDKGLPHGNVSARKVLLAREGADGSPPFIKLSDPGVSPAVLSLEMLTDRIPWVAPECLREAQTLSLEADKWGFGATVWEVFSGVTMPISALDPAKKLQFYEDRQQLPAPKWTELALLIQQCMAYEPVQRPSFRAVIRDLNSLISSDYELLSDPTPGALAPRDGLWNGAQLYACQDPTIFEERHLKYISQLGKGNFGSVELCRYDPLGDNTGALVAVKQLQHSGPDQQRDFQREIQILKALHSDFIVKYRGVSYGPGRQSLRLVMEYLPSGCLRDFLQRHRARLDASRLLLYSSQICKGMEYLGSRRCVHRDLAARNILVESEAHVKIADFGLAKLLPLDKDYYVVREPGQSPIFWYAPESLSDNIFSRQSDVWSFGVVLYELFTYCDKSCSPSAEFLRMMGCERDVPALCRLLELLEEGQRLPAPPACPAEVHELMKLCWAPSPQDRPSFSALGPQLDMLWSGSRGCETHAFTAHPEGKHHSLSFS
# [13] = molecular target: Receptor-type tyrosine-protein kinase FLT3 (Homo sapiens, UniProt P36888); assay: Inhibition of recombinant human N-terminal GST-tagged FLT3 (564 to end residues) expressed in expressed in Sf21 cells preincubated for 5 mins followed by substrate addition after 30 to 60 mins in presence of ATP by fluorescence assay
# [14] = species: Homo sapiens; assay: Selectivity ratio of IC50 for recombinant human full length N-terminal His6-tagged SYK to IC50 for human full length N-terminal His6-tagged BMX
# [15] = species: Homo sapiens; assay: Selectivity ratio of IC50 for human JAK1 to IC50 for human full length N-terminal His6-tagged BMX
# [16] = species: Homo sapiens; assay: Selectivity ratio of IC50 for recombinant human full length N-terminal GST-tagged CSK to IC50 for human full length N-terminal His6-tagged BMX
# [17] = species: Homo sapiens; assay: Selectivity ratio of IC50 for recombinant human N-terminal His6-tagged ITK (352 to 617 residues) to IC50 for human full length N-terminal His6-tagged BMX
structure (smiles),measurement,setting,value
C=CS(=O)(=O)N1CCC[C@@H]1Cn1cc(-c2ccc3c(c2)OCO3)c2c(N)ncnc21,IC50,[1],0.92 µM
same,Ratio IC50,[2],8.3
same,Ratio IC50,[3],2.5
same,Ratio IC50,[4],> 280
same,IC50,[5],0.0357 µM
same,IC50,[6],0.0895 µM
same,IC50,[7],5.65 µM
same,Ratio IC50,[8],5.6
same,IC50,[9],5.91 µM
same,Ratio IC50,[10],18
same,Ratio IC50,[11],28.1
same,IC50,[12],8.16 µM
same,IC50,[13],3.28 µM
same,Ratio IC50,[14],> 280
same,Ratio IC50,[15],> 280
same,Ratio IC50,[16],79.2
same,Ratio IC50,[17],158

# Reference: ChEMBL document CHEMBL4052785, “Discovery of (R)-5-(benzo[d][1,3]dioxol-5-yl)-7-((1-(vinylsulfonyl)pyrrolidin-2-yl)methyl)-7H-pyrrolo[2,3-d]pyrimidin-4-amine (B6) as a potent Bmx inhibitor for the treatment of NSCLC” (Bioorg Med Chem Lett, 2017)
